Reference: patent US6512112B2, “Aminoaryl oxazolidinone N-oxides” (Pharmacia & Upjohn Company, priority 1995, dated 2003)
Converted amounts (≈) assume the structure as drawn. Where two headings read alike, the source gives them in different places.

Tests used:
S. Pneumoniae UC ® 9912 = test: Minimum inhibitory concentration (MIC) by agar dilution; format: cell-based; settings: Streptococcus pneumoniae, UC9912
Experimental: (§1) The oxazolidinone compounds of the present invention have useful activity against a variety of microorganisms. The in vitro activity of compounds of the present invention are assessed by standard testing procedures such as the determination of minimum inhibitory concentration (MIC) by agar dilution as described in “Methods for Dilution Antimicrobial Susceptiblity Tests for Bacteria That Grow Aerobically” (MFT) published January 1993 by the National Committee for Clinical Laboratory Standards (NCCLS), 771 East Lancaster Avenue, Villanova, Pa. 19084, USA. The activity of selected compounds of the present invention against Staphylococcus aureus and Streptococcus pneumoniae are shown in Table 2.

S. Aureus UC ® 9213 = test: as above; format: cell-based; settings: Staphylococcus aureus, UC9213
Experimental: as §1

[1] = Solubility in pH 7, 50 mM phosphate buffer; format: physicochemical; settings: thermodynamic from solid
Experimental: The samples are capped and stirred via magnetic stir bars for 24 to 48 hours at room temperature. Samples are filter centrifuged (800×g) for 5-10 minutes through Millipore Ultrafree-MC 0.22 Micron filter units. The supernate is analyzed by either UV or HPLC to quantitate the drug concentration.

[2] = Reduction of the N-oxide in vivo following intravenous and oral administration to rats; design: species or system male Sprague-Dawley rats; settings: rat
Experimental: The rate and extent of reduction of the N-oxide of Example 2 was investigated in vivo using the following procedures: Six male Sprague-Dawley rats are used for this study. Three rats are given a single intravenous 10 mg/kg dose of the N-oxide and three rats are given a single oral 25 mg/kg dose of the N-oxide. Blood is collected pre-dose and up to 24 h post dose. The plasma is analyzed for the N-oxide and the parent amine by LC-MS.

[3] = aqueous buffer, pH 7, 50 mM phosphate buffer or other vehicle, room temperature, 24 to 48 hours, read-out: N-Oxide Solubility
[4] = aqueous buffer, parent amine of the example's N-oxide, pH 7, 50 mM phosphate buffer or other vehicle, room temperature, 24 to 48 hours, read-out: Parent Amine Solubility

| melting point [°C] | MIC (S. Pneumoniae UC ® 9912) [µg/mL] | MIC (S. Aureus UC ® 9213) [µg/mL] | solubility [1, 3] [µg/mL] | solubility [1, 4] [µg/mL] | SMILES | other results |
| --- | --- | --- | --- | --- | --- | --- |
|  |  |  |  | 4200 (≈ 10.6 mM) | CC(=O)NC[C@H]1CN(c2ccc(N3CCN(C(=O)CO)CC3)c(F)c2)C(=O)O1 [parent amine of Example 1, (S)-N-[[3-[3-Fluoro-4-[4-(hydroxyacetyl)-1-piperazinyl]-phenyl]-2-oxo-5-oxazolidinyl]methyl]-acetamide, reference compound] |  |
|  |  |  |  | 280 (≈ 0.676 mM) | CC(=O)NC[C@H]1CN(c2ccc(N3CCN(S(C)(=O)=O)CC3)c(F)c2)C(=O)O1 [parent amine of Example 3, (S)-N-[[3-[3-fluoro-4-[4-(methylsulfonyl)-1-piperazinyl]phenyl]-2-oxo-5-oxazolidinyl]-methyl]acetamide, reference compound] |  |
|  |  |  |  | 31 (≈ 0.0618 mM) | CC(=O)NC[C@H]1CN(c2ccc(N3CCN(S(=O)(=O)c4ccccc4C#N)CC3)c(F)c2)C(=O)O1 [parent amine of Example 6, (S)-N-[[3-[4-[4-[(2-cyanophenyl)sulfonyl]-1-piperazinyl]-3-fluorophenyl]-2-oxo-5-oxazolidinyl]methyl]acetamide, reference compound] |  |

The next lines start with the molecule.

| SMILES | melting point [°C] | MIC (S. Pneumoniae UC ® 9912) [µg/mL] | MIC (S. Aureus UC ® 9213) [µg/mL] | solubility [1, 3] [µg/mL] | solubility [1, 4] [µg/mL] | other results |
| --- | --- | --- | --- | --- | --- | --- |
| CC(=O)NC[C@H]1CN(c2ccc([N+]3([O-])CCN(C(=O)CO)CC3)c(F)c2)C(=O)O1 (hydrate or solvate) [Example 1, (S)-N-[[3-[3-fluoro4-[4-(hydroxyacetyl)-1-piperazinyl]phenyl]-2-oxo-5-oxazolidinyl]-methyl]acetamide N-oxide] | 158 to 160 |  |  |  |  |  |
| CC(=O)NC[C@H]1CN(c2ccc([N+]3([O-])CCN(C(=O)CO)CC3)c(F)c2)C(=O)O1 [Example 1, (S)-N-[[3-[3-fluoro4-[4-(hydroxyacetyl)-1-piperazinyl]phenyl]-2-oxo-5-oxazolidinyl]-methyl]acetamide N-oxide] |  | 0.5 (≈ 0.00122 mM) | 2 (≈ 0.00487 mM) | 348000 (≈ 848 mM) |  |  |
| CC(=O)NC[C@H]1CN(c2ccc([N+]3([O-])CCOCC3)c(F)c2)C(=O)O1 [Example 2] | 202 to 204 | 1 (≈ 0.00283 mM) | 4 (≈ 0.0113 mM) | 534000 (≈ 1510 mM) |  | solubility ([1]; water, value stated, read-out: water solubility): 409000 µg/mL (≈ 1160 mM); N-oxide found in plasma ([2]; 10 mg/kg intravenous N-oxide, first time point immediately post injection, LC-MS): Only traces; Cmax, Tmax and AUC values for the parent amine compared with direct administration of the parent amine ([2]; N-oxide 10 mg/kg intravenous and 25 mg/kg oral, same doses and protocol): very similar; conversion of the N-oxide to the parent amine in vivo ([2]; intravenous and oral dosing): rapid and essentially quantitative |
| CC(=O)NC[C@H]1CN(c2cc(F)c([N+]3([O-])CCN(C(=O)CO)CC3)c(F)c2)C(=O)O1 [Example 4, (S)-N-[[3-[3,5-difluoro-4-[4-(hydroxyacetyl)-1-piperazinyl]phenyl]-2-oxo-5-oxazolidinyl]-methyl]acetamide N-oxide] | 100 to 105 | 0.5 (≈ 0.00117 mM) | 2 (≈ 0.00467 mM) |  |  |  |
| CC(=O)[NH+]([O-])C[C@@H]1CN(c2ccc(N3CCN(S(=O)(=O)CC#N)CC3)c(F)c2)C(=O)O1 (stereo partly drawn) [Example 5, (S)-N-[[3-[4-[4-[(cyanomethyl)sulfonyl]-1-piperazinyl]3-fluorophenyl]-2-oxo-5-oxazolidinyl]methyl]acetamide N-oxide] | 153 to 156 | 0.5 (≈ 0.0011 mM) | 4 (≈ 0.00878 mM) |  |  |  |
| CC(=O)NC[C@H]1CN(c2ccc([N+]3([O-])CCN(S(=O)(=O)c4ccccc4C#N)CC3)c(F)c2)C(=O)O1 [Example 6, (S)-N-[[3-[4-[4-[(2-cyanophenyl)sulfonyl]-1-piperazinyl]-3-fluorophenyl]-2-oxo-5-oxazolidinyl]methyl]acetamide N-oxide] | 190 to 192 | 0.25 (≈ 0.000483 mM) | 2 (≈ 0.00386 mM) | 1100 (≈ 2.13 mM) |  |  |
| CC(=O)NC[C@H]1CN(c2ccc(N3CCOCC3)c(F)c2)C(=O)O1 [parent amine of Example 2, (S )-N-[[3-[3 -Fluoro-4-(4-morpholinyl)phenyl]-2-oxo-5-oxazolidinyl]methyl]-acetamide, reference compound] |  |  |  |  |  | time parent amine detected in plasma post dosing ([2]; after dosing of the N-oxide, lower limit of quantitation ≈0.01 μg/mL): up to 10 h |
